SMILES strings stand for the structures. Where “and” joins values, the source holds several entries; their conditions need not be identical. Identical values can stand only once. Toxic doses and inconclusive results are not listed. Non-standard residues stand in square brackets, D forms with d. Residues, ends and D or L forms follow the SMILES beside them. ξ: configuration not given here. *: point of attachment. Cbz = O=C(OCc1ccccc1)*; ξP = O=C(O)C1CCCN1

This is an account of results in PubChem BioAssay AID256 (DTP/NCI, 2004).

The test system of this assay is CD2F1 mice, L1210 leukemia ip, survival T/C. In words: NCI In Vivo Anticancer Drug Screen. Data for tumor model L1210 Leukemia (intraperitoneal) in CD2F1 (CDF1) mice. As to conditions: higher = longer survival. A digest of the protocol:
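Activity against a transplanted murine tumor was judged by comparing the compound group with a vehicle group. The outcome in the treated animals was divided by that in the controls.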

Setting [1] is: endpoint: mean survival time, dose: 100.0 mg/kg/injection, schedule: Q01DX009 (ip), vehicle: saline with Tween-80.
[2] abbreviates: endpoint: mean survival time, dose: 100.0 mg/kg/injection, schedule: Q04DX003 (ip), vehicle: saline with Tween-80.
Setting [3] is: endpoint: mean survival time, dose: 200.0 mg/kg/injection, schedule: Q01DX009 (ip), vehicle: saline with Tween-80.
Where [4] appears, read: endpoint: mean survival time, dose: 200.0 mg/kg/injection, schedule: Q04DX003 (ip), vehicle: saline with Tween-80.
The mark [5] stands for this setting: endpoint: mean survival time, dose: 400.0 mg/kg/injection, schedule: Q01DX009 (ip), vehicle: saline with Tween-80.
Setting [6] is: endpoint: mean survival time, dose: 400.0 mg/kg/injection, schedule: Q04DX003 (ip), vehicle: saline with Tween-80.
Where [7] appears, read: endpoint: mean survival time, dose: 25.0 mg/kg/injection, schedule: Q04DX002 (ip), vehicle: saline with Tween-80.
The mark [8] stands for this setting: endpoint: mean survival time, dose: 50.0 mg/kg/injection, schedule: Q04DX002 (ip), vehicle: saline with Tween-80.
Where [9] appears, read: endpoint: mean survival time, dose: 100.0 mg/kg/injection, schedule: Q04DX002 (ip), vehicle: saline with Tween-80.
Setting [10] is: endpoint: mean survival time, dose: 200.0 mg/kg/injection, schedule: Q04DX002 (ip), vehicle: saline with Tween-80.
Where [11] appears, read: endpoint: mean survival time, dose: 400.0 mg/kg/injection, schedule: Q04DX002 (ip), vehicle: saline with Tween-80.
[12] abbreviates: endpoint: mean survival time, dose: 100.0 mg/kg/injection, schedule: Q01DX001 (ip), vehicle: saline with Tween-80.

For `Cc1cc(C)c(C)cc1C`, the T/C runs as follows: under setting [1], 92 % of control; under setting [2], 96 % of control; under setting [3], 96 % of control; under setting [4], 100 % of control; under setting [5], 88 % of control; under setting [6], 94 % of control.

For the molecule `CCCCN(C)c1ccc(N=Nc2cc(Cl)ccc2Cl)cc1`, the T/C is 96 % of control under setting [7], 101 % of control under setting [8] and 104 % of control under setting [9].

On to `N#Cc1cccc2c(S(=O)(=O)O)cccc12`, for which the T/C reads like this: under setting [2], 98 % of control; under setting [4], 90 % of control; under setting [6], 104 % of control.

As to `COC(=O)N1c2ccc(C)cc2C=CC1C#N` (stereo not drawn), the T/C reads like this: under setting [1], 95 % of control; under setting [2], 102 % of control; under setting [3], 100 % of control; under setting [4], 105 % of control; under setting [5], 95 % of control; under setting [6], 90 % of control.

As for `O=C1c2c(O)cccc2-c2nn(CCNCCO)c3ccc(NCCNCCO)c1c23`, the T/C (endpoint: median survival time, dose: 1.38 mg/kg/injection, schedule: Q01DX009 (ip), vehicle: water) was 170 % of control; the T/C (endpoint: median survival time, dose: 2.75 mg/kg/injection, schedule: Q01DX009 (ip), vehicle: water) is 240 % of control and 370 % of control; the T/C (endpoint: median survival time, dose: 5.5 mg/kg/injection, schedule: Q01DX009 (ip), vehicle: water) is 222 % of control and 361 % of control; the T/C (endpoint: median survival time, dose: 11.0 mg/kg/injection, schedule: Q01DX009 (ip), vehicle: water) was 101 % of control and 107 % of control; the T/C (endpoint: median survival time, dose: 22.0 mg/kg/injection, schedule: Q01DX009 (ip), vehicle: water) was 87 % of control.

In the case of `COC(=O)/C=C/N(CCF)CCF`, the T/C by setting is: (endpoint: mean survival time, dose: 1.0 mg/kg/injection, schedule: Q01DX Z (ip), vehicle: saline) 94 % of control; (endpoint: mean survival time, dose: 3.0 mg/kg/injection, schedule: Q01DX Z (ip), vehicle: saline) 108 % of control.

Take `COC(=O)C1C(=O)CC2N(C)C1C(C)(C)C2(C)C` (stereo not drawn): the T/C by setting is: under setting [9], 115 % of control; under setting [10], 107 % of control.

In the case of `COc1cc(OC)c2c(c1Cl)OCC2=O`, the T/C under setting [1] is 91 % of control; the T/C under setting [2] was 103 % of control; the T/C under setting [3] is 91 % of control; the T/C under setting [4] was 94 % of control; the T/C under setting [6] is 97 % of control.

With `CC1(C)OCC(C2OC(C)(C)OC2C2COC(C)(C)O2)O1` (stereo not drawn), the T/C under setting [9] was 100 % of control, the T/C under setting [10] is 94 % of control and the T/C under setting [11] is 101 % of control.

For `O=C1C2CC(Cl)C(SSC3CC4C(=O)N(SC(Cl)(Cl)C(Cl)Cl)C(=O)C4CC3Cl)CC2C(=O)N1SC(Cl)(Cl)C(Cl)Cl` (stereo not drawn), the T/C by setting is: (endpoint: median survival time, dose: 6.25 mg/kg/injection, schedule: Q01DX009 (ip), vehicle: saline with Tween-80) 101 % of control; (endpoint: median survival time, dose: 12.5 mg/kg/injection, schedule: Q01DX009 (ip), vehicle: saline with Tween-80) 95 % of control; (endpoint: median survival time, dose: 25.0 mg/kg/injection, schedule: Q01DX009 (ip), vehicle: saline with Tween-80) 98 % of control and 100 % of control; (endpoint: median survival time, dose: 50.0 mg/kg/injection, schedule: Q01DX009 (ip), vehicle: saline with Tween-80) 101 % of control and 102 % of control; (endpoint: median survival time, dose: 100.0 mg/kg/injection, schedule: Q01DX009 (ip), vehicle: saline with Tween-80) 100 % of control and 102 % of control; (endpoint: median survival time, dose: 200.0 mg/kg/injection, schedule: Q01DX009 (ip), vehicle: saline with Tween-80) 102 % of control. Also, the T/C (endpoint: median survival time, dose: 400.0 mg/kg/injection, schedule: Q01DX009 (ip), vehicle: saline with Tween-80) is 105 % of control.

For `Cc1ccc(S(=O)(=O)Nc2ccccc2)c(CC(O)(c2ccccc2)c2ccccc2)c1`, the T/C under setting [2] was 88 % of control and the T/C under setting [4] was 88 % of control.

With `O=C(OC1C2C=COC(OC3OC(CO)C(O)C(O)C3O)C2C2(CO)OC12)c1ccc(O)cc1` (stereo not drawn), the T/C is, setting by setting: (endpoint: mean survival time, dose: 25.0 mg/kg/injection, schedule: Q01DX001 (ip), vehicle: carboxymethylcellulose (CMC)) 101 % of control; (endpoint: mean survival time, dose: 50.0 mg/kg/injection, schedule: Q01DX001 (ip), vehicle: carboxymethylcellulose (CMC)) 98 % of control; (endpoint: mean survival time, dose: 100.0 mg/kg/injection, schedule: Q01DX001 (ip), vehicle: carboxymethylcellulose (CMC)) 89 % of control.

`O=C(CNC(=O)OCc1ccccc1)NCC(=O)N1CCCC1C(=O)O` (stereo not drawn) (Cbz-Gly-Gly-[ξP]-OH): the T/C reads like this: (endpoint: mean survival time, dose: 100.0 mg/kg/injection, schedule: Q04DX003 (ip), vehicle: saline) 98 % of control; (endpoint: mean survival time, dose: 200.0 mg/kg/injection, schedule: Q04DX003 (ip), vehicle: saline) 96 % of control; (endpoint: mean survival time, dose: 400.0 mg/kg/injection, schedule: Q04DX003 (ip), vehicle: saline) 101 % of control.

Take `COc1ccc(CC2c3cc(OC)c(OC)cc3CCN2C(C)=O)cc1` (stereo not drawn): the T/C by setting is: under setting [2], 101 % of control; under setting [4], 100 % of control; under setting [6], 100 % of control.

Consider `O=C(NCCN=Cc1ccccc1)c1ccccc1`, for which the T/C runs as follows: under setting [12], 108 % of control; under setting [1], 98 % of control; (endpoint: mean survival time, dose: 200.0 mg/kg/injection, schedule: Q01DX001 (ip), vehicle: saline with Tween-80) 101 % of control; under setting [3], 101 % of control; (endpoint: mean survival time, dose: 400.0 mg/kg/injection, schedule: Q01DX001 (ip), vehicle: saline with Tween-80) 95 % of control; under setting [5], 97 % of control.

Consider `CC(NC(=O)CNC(=O)OCc1ccccc1)C(=O)O` (stereo not drawn), for which the T/C reads like this: under setting [2], 98 % of control; under setting [4], 96 % of control; under setting [6], 93 % of control.

As to `CC1(c2ccccc2)C=CC(=O)CC1` (stereo not drawn), the T/C under setting [9] is 93 % of control, the T/C under setting [10] is 101 % of control and the T/C under setting [11] is 97 % of control.

In the case of `C=C(C(=O)OC)N1C(=O)CC(C)C1=O` (stereo not drawn), the T/C is 97 % of control (endpoint: mean survival time, dose: 12.5 mg/kg/injection, schedule: Q04DX002 (ip), vehicle: saline with Tween-80); 108 % of control under setting [7]; 90 % of control under setting [8]; 86 % of control under setting [9].

With `CCCN1CCN(c2ccccc2)CC1`, the T/C (endpoint: mean survival time, dose: 25.0 mg/kg/injection, schedule: Q01DX009 (ip), vehicle: saline) was 103 % of control; the T/C (endpoint: mean survival time, dose: 50.0 mg/kg/injection, schedule: Q01DX009 (ip), vehicle: saline) is 103 % of control; the T/C (endpoint: mean survival time, dose: 100.0 mg/kg/injection, schedule: Q01DX009 (ip), vehicle: saline) was 96 % of control; the T/C under setting [2] was 103 % of control.

In the case of `O=C(O)/C=N/NS(=O)(=O)c1ccc2ccccc2c1`, the T/C reads like this: (endpoint: mean survival time, dose: 12.5 mg/kg/injection, schedule: Q04DX003 (ip), vehicle: other) 114 % of control; (endpoint: mean survival time, dose: 25.0 mg/kg/injection, schedule: Q04DX003 (ip), vehicle: other) 119 % of control; (endpoint: mean survival time, dose: 50.0 mg/kg/injection, schedule: Q04DX003 (ip), vehicle: other) 119 % of control; (endpoint: mean survival time, dose: 100.0 mg/kg/injection, schedule: Q04DX003 (ip), vehicle: other) 110 % of control; (endpoint: mean survival time, dose: 200.0 mg/kg/injection, schedule: Q04DX003 (ip), vehicle: other) 103 % of control.

For `CC1(C)N=C(N)N=C(N)N1c1cc(Cl)cc(CCNC(=O)Nc2ccc(S(=O)(=O)F)cc2)c1`, the T/C under setting [12] was 92 % of control.

As for `CC(C)(C[NH-])C[NH-].[Cl][Pt+2][Cl]`, the T/C (endpoint: median survival time, dose: 0.2 mg/kg/injection, schedule: Q04DX003 (ip), vehicle: water) is 118 % of control and 110 % of control and 111 % of control.

For `O=C(CC(c1ccccc1)c1ccccc1)c1ccccc1`, the T/C is 98 % of control under setting [1], 95 % of control under setting [3] and 98 % of control under setting [5].

`Brc1ccc2c(c1)C(Br)c1ccccc1-2` (stereo not drawn): the T/C (endpoint: mean survival time, dose: 50.0 mg/kg/injection, schedule: Q01DX009 (ip), vehicle: saline with Tween-80) is 105 % of control; the T/C under setting [1] is 103 % of control; the T/C under setting [2] was 101 % of control; the T/C under setting [3] was 100 % of control; the T/C under setting [4] was 101 % of control.

Consider `CCOC(=O)NC(C#N)=C(Cl)Cl`, for which the T/C was 114 % of control under setting [9], 88 % of control under setting [10] and 100 % of control under setting [11].

In the case of `Cc1ccc(C(=O)O)s1`, the T/C under setting [2] is 91 % of control and the T/C under setting [4] is 97 % of control.
